In brackets after ≈: the same amount, converted by molar mass. Where two headings read alike, the source gives them in different places.
Assays:
Escherichia coli NIHTC-2 = experiment: MIC, agar dilution method, pH 7.2; format: cell-based; conditions: NIHTC2; pH 7.2; Escherichia coli NIHTC-2; read-out: Minimum inhibition concentration (MIC)
Experimental: (§1) Measurement was carried out according to the agar dilution method, using a medium of pH 8.0, or the Japanese Antibiotic Medicament Standard, using a medium of pH 7.2 Units are in mcg/ml.

[1] = tested on: Eschericihia coli GN2411-5; experiment: MIC, agar dilution method, pH 7.2; format: cell-based; conditions: Escherichia coli
Experimental: as §1

[2] = tested on: Klebsiella pneumoniae KY4274; experiment: MIC, agar dilution method, pH 7.2; format: cell-based; conditions: pH 7.2; Klebsiella pneumoniae KY4274; read-out: Minimum inhibition concentration (MIC)
Experimental: as §1

Proteus vulgaris JJ = experiment: MIC, agar dilution method, pH 7.2; format: cell-based; conditions: pH 7.2; Proteus vulgaris JJ; read-out: Minimum inhibition concentration (MIC)
Experimental: as §1

[3] = tested on: Pseudomonas aeruginosa BMH# 1; experiment: MIC, agar dilution method, pH 7.2; format: cell-based; conditions: pH 7.2; Pseudomonas aeruginosa BMH# 1; read-out: Minimum inhibition concentration (MIC)
Experimental: as §1

[4] = tested on: Pseudomonas aeruginosa UCLA 4184; experiment: MIC, agar dilution method, pH 7.2; format: cell-based; conditions: UCLA4184; pH 7.2; Pseudomonas aeruginosa UCLA 4184; read-out: Minimum inhibition concentration (MIC)
Experimental: as §1

[5] = tested on: Salmonella enteritidis G-14; experiment: MIC, agar dilution method, pH 7.2; format: cell-based; conditions: Salmonella enterica; pH 7.2; Salmonella enteritidis G-14; read-out: Minimum inhibition concentration (MIC)
Experimental: as §1

Shigella sonnei ATCC9290 = experiment: MIC, agar dilution method, pH 7.2; format: cell-based; conditions: read-out: Minimum inhibition concentration (MIC)
Experimental: as §1

[6] = tested on: Staphylococcus aureus 209-P; experiment: MIC, agar dilution method, pH 7.2; format: cell-based; conditions: pH 7.2; Staphylococcus aureus 209-P; read-out: Minimum inhibition concentration (MIC)
Experimental: as §1

[7] = tested on: Staphylococcus aureus Smith (A); experiment: MIC, agar dilution method, pH 7.2; format: cell-based; conditions: pH 7.2; Staphylococcus aureus Smith (A); read-out: Minimum inhibition concentration (MIC)
Experimental: as §1

[8] = tested on: Staphylococcus a ureus 226; experiment: MIC, agar dilution method, pH 7.2; format: cell-based, Staphylococcus aureus; conditions: pH 7.2; Staphylococcus aureus 226; read-out: Minimum inhibition concentration (MIC)
Experimental: as §1

Eschericihia coli 3100 = experiment: MIC, agar dilution method, pH 7.2; format: cell-based, Escherichia coli; conditions: Escherichia coli; pH 7.2; E. coli 3100; read-out: Minimum inhibition concentration (MIC)
Experimental: as §1

[9] = tested on: Escherichia coli 57R/W677; experiment: MIC, agar dilution method, pH 7.2; format: cell-based; conditions: 57R/W677, pH 7.2, read-out: Minimum inhibition concentration (MIC)
Experimental: as §1
(§2) **1: gentamicin, producing adenylsynthetase.

Escherichia coli 76-2 = experiment: MIC, agar dilution method, pH 7.2; format: cell-based; conditions: Escherichia coli, 762; pH 7.2; E. coli 76-2; 1**: gentamicin, producing adenylsynthetase; read-out: Minimum inhibition concentration (MIC)
Experimental: as §1, §2

[10] = tested on: Escherichia coli R12 Z-338; experiment: MIC, agar dilution method, pH 7.2; format: cell-based
Experimental: as §1, §2

[11] = tested on: Klebsiella pneumoniae 3020 Y-60; experiment: MIC, agar dilution method, pH 7.2; format: cell-based; conditions: 3020Y60; pH 7.2; Klebsiella pneumoniae 3020 Y-60; 1**: gentamicin, producing adenylsynthetase; read-out: Minimum inhibition concentration (MIC)
Experimental: as §1, §2

[12] = tested on: Escherichia coli R18 KY8321; experiment: MIC, agar dilution method, pH 7.2; format: cell-based; conditions: R18KY8321, E. coli R18 KY8321, 2**: gentamicin, producing adenylsynthetase and neomycin phosphotransferase type II, read-out: Minimum inhibition concentration (MIC)
Experimental: as §1
2: gentamicin, producing adenylsynthetase and neomycin phosphotransferase

[13] = tested on: Escherichia coli R17 Z343; experiment: MIC, agar dilution method, pH 7.2; format: cell-based; conditions: R17Z343, pH 7.2, E. coli R17 Z343, 3**: kanamycin, producing acetyltransferase, read-out: Minimum inhibition concentration (MIC)
Experimental: as §1
(§3) 3: kanamycin, producing acetyltransferase.

[14] = tested on: Pseudomonas aeruginosa R9 KY8516; experiment: MIC, agar dilution method, pH 7.2; format: cell-based; conditions: R9KY8516, pH 7.2, P. aeruginosa R9 KY8516, 3**: kanamycin, producing acetyltransferase, read-out: Minimum inhibition concentration (MIC)
Experimental: as §1, §3

Serratia marcescens 1065 = experiment: MIC, agar dilution method, pH 7.2; format: cell-based
Experimental: as §1, §3

[15] = tested on: Escherichia coli R19 KY8348; experiment: MIC, agar dilution method, pH 7.2; format: cell-based; conditions: R19KY8348, pH 7.2, E. coli R19 KY8348, 4**: gentamicin, producing acetyltransferase type I, read-out: Minimum inhibition concentration (MIC)
Experimental: as §1
(§4) 4: gentamicin, producing acetyltransferase type I.

[16] = tested on: Pseudomonas aeruginosa R4 KY8511; experiment: MIC, agar dilution method, pH 7.2; format: cell-based; conditions: R4KY8511, pH 7.2, P. aeruginosa R4 KY8511, 4**: gentamicin, producing acetyltransferase type I, read-out: Minimum inhibition concentration (MIC)
Experimental: as §1, §4

[17] = tested on: Escherichia coli R20 KY8349; experiment: MIC, agar dilution method, pH 7.2; format: cell-based
Experimental: as §1
5: neomycin, producing phosphotransferase type I.

[18] = tested on: Pseudomonas aeruginosa R5 KY8512; experiment: MIC, agar dilution method, pH 7.2; format: cell-based; conditions: R5KY8512, pH 7.2, P. aeruginosa R5 KY8512, 6**: neomycin, producing phosphotransferase type I and type II, read-out: Minimum inhibition concentration (MIC)
Experimental: as §1
6: neomycin, producing phosphotransferase type I and type II.

Providencia sp 164 = experiment: MIC, agar dilution method, pH 7.2; format: cell-based; conditions: pH 7.2; Providencia sp 164; 7**: gentamicin, producing acetyltransferase type II; read-out: Minimum inhibition concentration (MIC)
Experimental: as §1
7: gentamicin, producing acetyltransferase type II.

[19] = tested on: Staphylococcus aureus KY4279 ATCC6538P; experiment: MIC, agar dilution method, pH 8.0; format: cell-based
Experimental: as §1
S.A.: Staphylococcus aureus KY4279 ATCC6538P

Bacillus subtilis KY4273 = experiment: MIC, agar dilution method, pH 8.0; format: cell-based; conditions: pH 8.0; Bacillus subtilis KY4273; read-out: Minimum inhibition concentration (MIC), BS
Experimental: as §1
B.S.: Bacillus subtilis KY4273

[20] = tested on: Eschericia coli KY4271 ATCC26; experiment: MIC, agar dilution method, pH 8.0; format: cell-based; conditions: Escherichia coli
Experimental: as §1
E.C.: Eschericia coli KY4271 ATCC26

[21] = tested on: Proteus vulgaris KY4277 ATCC6897; experiment: MIC, agar dilution method, pH 8.0; format: cell-based; conditions: ATCC6897; pH 8.0; Proteus vulgaris KY4277; read-out: Minimum inhibition concentration (MIC), PV
Experimental: as §1

[22] = tested on: Shigella sonnei KY4281 ATCC9290; experiment: MIC, agar dilution method, pH 8.0; format: cell-based; conditions: ATCC9290; pH 8.0; Shigella sonnei KY4281; read-out: Minimum inhibition concentration (MIC), SS
Experimental: as §1

[23] = tested on: Salmonella typhosa KY4278 ATCC9992; experiment: MIC, agar dilution method, pH 8.0; format: cell-based; conditions: Salmonella enterica, pH 8, read-out: Minimum inhibition concentration (MIC), ST
Experimental: as §1
S.T.: Salmonella typhosa KY4278 ATCC9992

[24] = tested on: Klebsiella pneumoniae KY4275 ATCC10031; experiment: MIC, agar dilution method, pH 8.0; format: cell-based; conditions: ATCC10031; pH 8.0; Klebsiella pneumoniae KY4275; read-out: Minimum inhibition concentration (MIC), KP
Experimental: as §1
K.P.: Klebsiella pneumoniae KY4275 ATCC10031.

Row | SMILES | MIC (Escherichia coli NIHTC-2) [µg/mL] | MIC [2] [µg/mL] | MIC (Proteus vulgaris JJ) [µg/mL] | MIC [3] [µg/mL] | MIC [4] [µg/mL] | MIC [5] [µg/mL] | MIC (Shigella sonnei ATCC9290) [µg/mL] | MIC [6] [µg/mL] | MIC [7] [µg/mL] | MIC [8] [µg/mL] | MIC (Eschericihia coli 3100) [µg/mL] | MIC [9] [µg/mL] | MIC (Escherichia coli 76-2) [µg/mL] | MIC [11] [µg/mL] | MIC [12] [µg/mL] | MIC [13] [µg/mL] | MIC [14] [µg/mL] | MIC [15] [µg/mL] | MIC [16] [µg/mL] | MIC [18] [µg/mL] | also measured
1 | CO[C@H]1[C@@H](O)[C@H](N)[C@@H](O[C@H]2O[C@H]([C@H](C)N)CC[C@H]2N)[C@H](O)[C@@H]1N(C)C(=O)CO [Compound 4, 4-N-glycolylfortimicin B] | 12.5 (≈ 30.8 µM) | 25 (≈ 61.5 µM) | 25 (≈ 61.5 µM) | 50 (≈ 123 µM) | 100 (≈ 246 µM) | 25 (≈ 61.5 µM) | 25 (≈ 61.5 µM) | 3.12 (≈ 7.68 µM) | 3.12 (≈ 7.68 µM) | 12.5 (≈ 30.8 µM) | 12.5 (≈ 30.8 µM) | 25 (≈ 61.5 µM) | 6.25 (≈ 15.4 µM) | > 100 | 6.25 (≈ 15.4 µM) | 6.25 (≈ 15.4 µM) | 100 (≈ 246 µM) | > 100 | > 100 | 50 (≈ 123 µM) | MIC ([1]; pH 7.2, E. coli GN2411-5, read-out: Minimum inhibition concentration (MIC)): 12.5 µg/mL (≈ 30.8 µM); MIC ([10]; R12Z338, pH 7.2, E. coli R12 Z-338, 1**: gentamicin, producing adenylsynthetase, read-out: Minimum inhibition concentration (MIC)): 25 µg/mL (≈ 61.5 µM); MIC (Serratia marcescens 1065; pH 7.2, Serratia marcescens 1065, 3**: kanamycin, producing acetyltransferase, read-out: Minimum inhibition concentration (MIC)): 50 µg/mL (≈ 123 µM); MIC ([17]; R20KY8349, pH 7.2, E. coli R20 KY8349, 5**: neomycin, producing phosphotransferase type I, read-out: Minimum inhibition concentration (MIC)): 12.5 µg/mL (≈ 30.8 µM); MIC (Providencia sp 164): 100 µg/mL (≈ 246 µM); MIC ([19]; Staphylococcus aureus, pH 8, read-out: Minimum inhibition concentration (MIC), SA): 1.25 µg/mL (≈ 3.08 µM); MIC (Bacillus subtilis KY4273): 5 µg/mL (≈ 12.3 µM); MIC ([20]; ATCC26, pH 8, read-out: Minimum inhibition concentration (MIC), EC): 1.25 µg/mL (≈ 3.08 µM); MIC [21]: 2.5 µg/mL (≈ 6.15 µM); MIC [22]: 5 µg/mL (≈ 12.3 µM); MIC [23]: 1.25 µg/mL (≈ 3.08 µM); MIC [24]: 5 µg/mL (≈ 12.3 µM)
2 | CNCC[C@H](O)CN(C)[C@H]1[C@@H](O)[C@H](O[C@H]2O[C@H]([C@H](C)N)CC[C@H]2N)[C@@H](N)[C@H](O)[C@@H]1OC [Compound 28, 4-N-[(S)-4-methylamino-2-hydroxybutyl]fortimicin B] | 1.56 (≈ 3.47 µM) | 3.12 (≈ 6.94 µM) | 3.12 (≈ 6.94 µM) | 12.5 (≈ 27.8 µM) | 50 (≈ 111 µM) | 3.12 (≈ 6.94 µM) | 6.25 (≈ 13.9 µM) | 0.78 (≈ 1.73 µM) | 0.4 (≈ 0.89 µM) | 0.4 (≈ 0.89 µM) | 12.5 (≈ 27.8 µM) | 12.5 (≈ 27.8 µM) | 3.12 (≈ 6.94 µM) | 12.5 (≈ 27.8 µM) | 12.5 (≈ 27.8 µM) | 3.12 (≈ 6.94 µM) | 50 (≈ 111 µM) | > 100 | > 100 | 12.5 (≈ 27.8 µM) | MIC ([1]; GN2411, pH 7.2, read-out: Minimum inhibition concentration (MIC)): 6.25 µg/mL (≈ 13.9 µM); MIC ([10]; R12Z338, pH 7.2, read-out: Minimum inhibition concentration (MIC)): 6.25 µg/mL (≈ 13.9 µM); MIC (Serratia marcescens 1065; Serratia marcescens, 1065, pH 7.2, read-out: Minimum inhibition concentration (MIC)): 6.25 µg/mL (≈ 13.9 µM); MIC ([17]; R20KY8349, pH 7.2, read-out: Minimum inhibition concentration (MIC)): 1.25 µg/mL (≈ 2.78 µM); MIC (Providencia sp 164): 25 µg/mL (≈ 55.6 µM); MIC ([19]; pH 8.0, Staphylococcus aureus KY4279, read-out: Minimum inhibition concentration (MIC), SA): 0.04 µg/mL (≈ 0.089 µM); MIC (Bacillus subtilis KY4273): 0.04 µg/mL (≈ 0.089 µM); MIC ([20]; ATCC26, pH 8.0, E. coli KY4271, read-out: Minimum inhibition concentration (MIC), EC): 0.08 µg/mL (≈ 0.178 µM); MIC [21]: 0.32 µg/mL (≈ 0.712 µM); MIC [22]: 0.63 µg/mL (≈ 1.4 µM); MIC [23]: 0.08 µg/mL (≈ 0.178 µM); MIC [24]: 0.32 µg/mL (≈ 0.712 µM)

— patent publication US4220755A, “Fortimicin B derivatives and process for production thereof” (Abbott Laboratories, priority 1976, dated 1980)
